# Counter-ions that a name gives are not always drawn. Like-named read-outs stand apart in the source and are kept apart here.
# How the values were obtained:
# Hygroscopicity = assay type: physicochemical
# Source text: (§1) In the study on polymorphism of compound (I), six kinds of polymorphs (A01, A09, A16, A20, A30 and A43 crystals) were found. For each of those polymorphs, hygroscopicity, stability in solid state, solubility and changes in crystallinity on compounding with various solvents were studied. However, the A30 crystal was not studied since it contains ethanol.
# physchem = details: thermodynamic from solid
# [1] = Changes in crystallinity upon compounding with ethanol; assay type: physicochemical
# Source text: (2) Changes in crystallinity upon compounding
# For compound (I) and hydrochloride (B), changes in crystallinity upon compounding with ethanol were studied.
# Stability in solid state = assay type: physicochemical; parameters: Water content: unit not given here
# Source text: The crystallinity of hydrochloride was decreased when it was mixed with ethanol.
# as §1
# (2) Stability in solid state
# [2] = methanesulfonate
# [3] = distilled water for injection, water
# [4] = physiological saline solution, saline or isotonic
# [5] = 70°C, 75% RH, 9 days, methanesulfonate
# [6] = Table 1, listed as Compound (I) (A01 crystal)
# [7] = Table 4, room temperature, 30-min shaking
compound,measurement,setting,value
"CS(=O)(=O)O.O=C(Nc1cccc(-n2c(=O)c(Cc3cccnc3)nc3cccnc32)c1)c1cc(Cl)cc(Cl)c1 [A01 crystal, 4-(3-(3,5-dichlorobenzoylamino)phenyl)-2-(3-pyridyl)methyl-3-oxo-3,4-dihydropyr ido[2,3-b]pyrazine methanesulfonate]",Hygroscopicity,"Hygroscopicity; listed as A01, methanesulfonate",less hygroscopic
same,solubility,physchem; [3],637 µg/mL
same,solubility,physchem; [4],43.9 µg/mL
same,solubility at 30 min,physchem; [4],43.9 µg/mL
same,Influence of compounding with ethanol on crystallinity,"[1]; listed as Compound (I) (A01 crystal), methanesulfonate",No change (changed into in A16 crystal)
same,Crystal form,"Stability in solid state; 70°C, 75% RH, 9 days",Unchanged
same,% Residue,Stability in solid state; [5],99.9%
same,Appearance,Stability in solid state; [5],Yellowish white crystalline powder powder
same,Water content,Stability in solid state; [5],4.76
same,Crystal form,"Stability in solid state; 70°C, 9 days",Unchanged
same,Appearance,"Stability in solid state; 70°C, 9 days, methanesulfonate",Yellowish white crystalline powder
same,Water content,"Stability in solid state; 70°C, 9 days, methanesulfonate",4.23
same,% Residue,Stability in solid state; Initial,100.0%
same,Appearance,"Stability in solid state; Initial, methanesulfonate",Yellowish white crystalline powder
same,Water content,"Stability in solid state; Initial, methanesulfonate",4.42
same,"Solubility, Distilled water for injection",[2]; [6],improved
same,"Solubility, Physiological saline solution",[2]; [6],improved
same,"Solubility, Distilled injection for injection",[2]; [7],637 µg/mL
"CS(=O)(=O)O.O=C(Nc1cccc(-n2c(=O)c(Cc3cccnc3)nc3cccnc32)c1)c1cc(Cl)cc(Cl)c1 [A20 crystal, 4-(3-(3,5-dichlorobenzoylamino)phenyl)-2-(3-pyridyl)methyl-3-oxo-3,4-dihydropyr ido[2,3-b]pyrazine methanesulfonate]",Hygroscopicity,"Hygroscopicity; listed as A20, methanesulfonate",less hygroscopic
same,Crystal form,"Stability in solid state; 70°C, 75% RH, 9 days",Unchanged
same,% Residue,Stability in solid state; [5],101.0%
same,Appearance,Stability in solid state; [5],Pale yellowish white crystalline powder
same,Water content,Stability in solid state; [5],1.22
same,Crystal form,"Stability in solid state; 70°C, 9 days",Unchanged
same,% Residue,"Stability in solid state; 70°C, 9 days, methanesulfonate",99.6%
same,Appearance,"Stability in solid state; 70°C, 9 days, methanesulfonate",Pale yellowish white crystalline powder
same,Water content,"Stability in solid state; 70°C, 9 days, methanesulfonate",0.30
same,% Residue,Stability in solid state; Initial,100.0%
same,Appearance,"Stability in solid state; Initial, methanesulfonate",Pale yellowish white white crystalline powder
same,Water content,"Stability in solid state; Initial, methanesulfonate",0.41
same,change in crystal form,"Stability in solid state; heat and humidity, summary of Table 3",no change
same,chemical stability against heat and humidity,Stability in solid state; summary of Table 3,chemically stable
same,"Solubility, Distilled injection for injection",[2]; [7],8.76 µg/mL
same,"Solubility, Physiological saline solution",[2]; [7],0.0645 mg/ml
"CS(=O)(=O)O.O=C(Nc1cccc(-n2c(=O)c(Cc3cccnc3)nc3cccnc32)c1)c1cc(Cl)cc(Cl)c1 [Example A09, 4-(3-(3,5-dichlorobenzoylamino)phenyl)-2-(3-pyridyl)methyl-3-oxo-3,4-dihydropyrido[2,3-b]pyrazine methanesulfonate]",Hygroscopicity,Hygroscopicity; methanesulfonate,highly hygroscopic
"CS(=O)(=O)O.O=C(Nc1cccc(-n2c(=O)c(Cc3cccnc3)nc3cccnc32)c1)c1cc(Cl)cc(Cl)c1 [compound (I), 4-[3-(3,5-dichlorobenzoylamino)phenyl]-2-(3-pyridylmethyl)-3-oxo-3,4-dihydropyr ido[2,3-b]pyrazine methanesulfonate]",Influence of compounding with ethanol on crystallinity,[1]; methanesulfonate,no change in crystallinity
"O=C(Nc1cccc(-n2c(=O)c(Cc3cccnc3)nc3cccnc32)c1)c1cc(Cl)cc(Cl)c1 [free base (A), 4-[3-(3,5-dichlorobenzoylamino)phenyl]-2-(3-pyridylmethyl)-3-oxo-3,4-dihydropyr ido[2,3-b]pyrazine, reference compound]",solubility,physchem; [3],≤ 1 µg/mL
same,solubility,physchem; [4],≤ 1 µg/mL
"O=C(Nc1cccc(-n2c(=O)c(Cc3cccnc3)nc3cccnc32)c1)c1cc(Cl)cc(Cl)c1 [hydrochloride (B), reference compound]",Influence of compounding with ethanol on crystallinity,[1]; listed as Hydrochloride (B),Crystallinity decreased
same,Influence of compounding with ethanol on crystallinity,[1]; listed as hydrochloride,decreased
same,residual amount,"Stability in solid state; ethanol-compounded solid, 70°C for 9 days",91%
"O=C(Nc1cccc(-n2c(=O)c(Cc3cccnc3)nc3cccnc32)c1)c1cc(Cl)cc(Cl)c1.O=S(=O)(O)O [sulfate, 4-(3-(3,5-dichlorobenzoylamino)phenyl)-2-(3-pyridyl)methyl-3-oxo-3,4-dihydropyrido[2,3-b]pyrazine sulfate, reference compound]",solubility,physchem; [3],29.5 µg/mL
same,solubility,physchem; [4],38.9 µg/mL
